Where “and” joins values, the source holds several entries; their conditions need not be identical. Equal values may be shown once.
What was measured:
Assay type in all cases: cell-based
[1] = system: Escherichia coli (E. coli—ATCC #10536); assay: Automated assessment of efficacy in surfactant base (2.85% sodium cocoyl glycinate and 1.85% sodium lauroamphoacetate, pH 10.0), 15 seconds exposure; conditions: for Δ OD 450 nm = OD450 (time = 16 hours) − OD450 (time zero), Mean / Δ OD 590 nm OD590 (time = 16 hours) − OD590 (time zero), Mean / No. of replicates showing growth (out of 4): alone, model surfactant solution; for MBC (minimum biocidal concentration): in 2.85% sodium cocoyl glycinate + 1.85% sodium lauroamphoacetate solution at pH 10, E. coli
Method: Test Methodology for Automated Assessment of Efficacy in Surfactant Base Microbiocidal Activity of Actives as Per the Invention in a Model Surfactant Medium Test Methodology for Automated Assessment of Efficacy in Surfactant Base In these examples, the efficacy of combinations of actives were tested in a surfactant cleansing formulation comprising 2.85% sodium cocoyl glycinate and 1.85% sodium lauroamphoacetate. This corresponds to a 50% in use dilution with water of a neat formulation containing 5.7% cocoyl glycinate and […] % sodium, lauroamphoacetate during hand washing. Solutions were prepared such that the concentrations of the surfactant components and test actives were 1.1× the final desired concentration in order to allow for dilution with the bacterial inoculum in the test. The solutions were manually adjusted to pH 10.0 by dropwise addition of sodium hydroxide solution, as measured with a pH meter at ambient temperature. The efficacy of the combinations of the present invention was determined against Escherichia coli (E. coli—ATCC #10536), at a concentration of approximately 1×10^8 bacteria per mL. Tests were conducted using standard microtiter plate assays using an automated liquid handling system. 270 μl of the surfactant test solution was pipetted into each well of the microtitre plate and 30 μl of the bacterial suspension was then added. Alter exactly 15 seconds of bacterial exposure, a 30 μl volume of bacterial cells was withdrawn and transferred to 270 μl of D/E quench solution. After 5 minutes in the D/E quench, the optical density (OD) was measured for each plate in turn at two specific wavelengths (450 nm and 590 nm). These provide a dual check of antimicrobial activity, as the OD450 reading is specific for the yellow colour of D/E quench when bacterial growth is observed, whereas OD590 is specific for the initial purple colour of the D/E quench which is retained if no bacterial growth is observed. After the time zero OD measurements, plates were then incubated at 37° C. overnight (16 hours) before repeating the OD measurements. Delta OD values were calculated by subtracting […]. Bacterial growth is observed as an increase in OD450 and a decrease in ΔOD590. To identify antibacterially efficacious systems (those preventing appreciable bacterial growth after incubation), the following threshold changes in OD readings have been adopted: if (1). OD450 increases by less than 0.2 absorbance unit on incubation and (2). OD590 decreases by less than 0.35 unit on incubation. Conversely, where OD450 increases by more than 0.2 AU and OD590 decreases by more than 0.35 unit after incubation, corresponding to a colour shift from purple to yellow, the test system allows bacterial growth and is not deemed efficacious. Four replicate measurements in the same plate have been made for each test system. The number of replicate wells showing either bacterial growth or no growth is also readily assessed by eye by following the colour change. Dose responses for individual components and binary mixtures of actives at a fixed concentration ratio were generated by sequential dilution of liquors with further surfactant solution to obtain a series of endpoints. […] In some selected cases, the combinations were also tested at the weight ratio 1:1.

[2] = system: Escherichia coli (10536 strain); assay: 15 second contact kill test versus E. coli (actives in water, mean bacterial survival NMBS); conditions: for MBC (minimum biocidal concentration of antimicrobial components): Table 27; for NMBS: no alcohol, 15 s
Method: 15 Second Contact Kill Test Versus E. Coli and S. Aureus
Antimicrobial efficacy is tested against a representative pathogenic bacterial organism, Gram negative Escherichia coli. Concentrations of actives are expressed in terms of the percentage weight/volume (% w/v) throughout Example 1.
An overnight culture of Escherichia coli (10536 strain) was prepared in 50 ml total volume of TSB broth, grown for ca. 18 hrs at 37° C. and shaken at 150 rpm. 1 ml of this overnight E. coli culture was transferred to 50 ml of fresh TSB broth and incubated at 37° C. at 150 rpm for ca. 4 hours. This culture was separated into equal volumes and centrifuged at 4000 rpm for 15 minutes, washed with sterile saline (0.85% NaCl), centrifuged once more and re-suspended in saline to give a final concentration of 0.8 OD620 equivalent to about 10^8 cells per milliliter for this particular organism. Here, OD620 indicates the absorbance of a sample in a cuvette of 1.0 cm path length at a wavelength of 620 nm. This bacterial stock was used for assaying against antimicrobial actives (in triplicate). S. Aureus Bacterial Stock
The following assay describes the testing of 8 materials using 6 dilutions across half of a 96-well micro titre plate (MTP). Using this approach it is possible to assay 16 actives (without replicates) with one full dilution plate, replicating this set up in two halves of the plate columns, 1-6 and 7-12. 1M solutions of the test actives were prepared in dimethylsulphoxide (DMSO). […] Aliquots (270 μl) of the materials at 1.11 times the final concentration were dispensed into the wells of the MTP along one column (A1-H1). This MTP was labelled as the “Screening plate”. In another MTP, labelled as the “Dilution plate”, […] of D/E neutralising solution from DIFCO Composition was added to column 1. The composition of the neutralising solution was as follows: pancreatic digest of casein, 5.0 g/L; Yeast Extract, 2.5 g/L; Dextrose, 10 g/L, sodium thioglycollate, 1.0 g/L, sodium thiosulphate, 6.0 g/L; sodium bisulphite, 2.5 g/L; Polysorbate 80, 5.0 g/L; lecithin 7.0 g/L; bromocresol purple, 0.02 g/L with a pH in the range 7.6±0.2. 270 μl of tryptone diluent solution was added to all the remaining wells of the Dilution MTP (columns 2-6). Bacterial stock (30 μl) was then added to the prepared 270 μl of the solution of actives in the Screening Plate and mixed, using a multichannel pipette with 8 tips to aspirate and dispense the same volume of bacterial stock in parallel to 8 wells in rows A-H. After a contact time of 15 seconds, the mixtures were quenched by transferring 30 μl volumes of the mixtures into the 270 μl D/E neutralising solution in the prepared dilution plate, using aspiration to mix. After exactly 5 minutes in the D/E neutralising solution, 30 μl volumes were transferred from column 1 to column 2 of the Dilution MTP and mixed, before transferring further 30 μl volumes from column 2 into column 3. This process was repeated serially diluting the bacteria across the plate to column 6. 30 μl volumes from each well in the Dilution MTP were transferred onto pre-labelled segment of Tryptone Soya Agar (TSA) plates starting from the lowest bacterial concentration (highest dilution, column 6) to the highest bacterial concentration (column 1). The TSA plates were allowed to stand for ca. 2 hours so that the 30 μl inocula spots could dry and the plates were then inverted and incubated overnight at 37° C. before enumerating the bacterial colonies at the labelled dilutions to determine the effects of the actives on bacterial growth. Calculation of Results Mean bacterial survival numbers NMBS (expressed in Log CFU/ml) are obtained by first determining the segment of the TSA plate where the number of bacterial colonies is countable.

[3] = system: Escherichia coli (E. coli—ATCC #10536); assay: Synergy test: high resolution MBC microtiter plate assay, phosphate buffer containing 35% dipropylene glycol, 15 seconds contact; conditions: E. coli 10536; for SI (Synergy Index): at Qa and Qb, less than one = synergy; for MBC of the component acting alone (QA / QB; Qa or Qb where the other component is 0): complete kill in 15 seconds
Excerpt: The concentrations and ratios may also vary under different test conditions or with different test methods.
One measure of synergy is the industrially accepted method described by Kull, F. C.; Eisman, P. C.; Sylwestrowicz, H. D, and Mayer, R. L., in Applied Microbiology 9:538-541 (1961), using the ratio determined by the formula: […]=Synergy Index (“SI”) wherein; QA=concentration of compound A (first component) in percent, acting alone, which produced an end point (MBC of Compound A). Qa=concentration of compound A in percent, in the mixture, which produced an end point. QB=concentration of compound B (second component) in percent, acting alone, which, produced an end point (MBC of Compound B). Qb=concentration of compound B in percent, in the mixture, which produced an end point.
When the sum of Qa/QA and Qb/QB is greater than one, antagonism is indicated. […] The lower the SI, the greater is the synergy shown by that particular mixture. The minimum biocidal concentration (MBC) of a microbicide is the lowest concentration tested under a specific set of conditions that provides complete kill of the tested microorganisms.
Synergy tests were conducted using standard microliter plate assays with phosphate buffer containing 35% dipropylene glycol (DPG). In this method, a wide range of combinations of chemicals was tested by conducting high resolution MBC assays of Component (A) in the presence of various concentrations of Component (B). High resolution MBCs were determined by adding varying amounts of microbicide to one column of a microliter plate and doing subsequent […] dilutions using an automated liquid handling, system to obtain a series of closely spaced endpoints. The MBC plate was inoculated one column at a time with the test microorganism. An aliquot of the inoculated well was transferred at 15 seconds to a plate containing a neutralizing agent (D/E Neutralizing Broth), mixed and held for 5 minutes before being transferred to a growth plate containing trypticase soy broth (TSB). The TSB plate was incubated at 37° C. and read for the presence/absence of growth at 24 hours. The lowest level tested that provided complete kill (as evidenced by no growth in the microtitre plate) of the test organisms in 15 seconds is the minimum biocidal concentration (MBC).
The synergy of the combinations of the present invention was determined against a bacterium, Escherichia coli (E. coli—ATCC #10536), at a concentration of approximately 1×10^8 it bacteria per mL. This microorganism is representative of natural contaminants in many consumer and industrial applications.

[4] = Table 28, E. coli, component alone

SMILES | Δ OD 450 nm = OD450 (time = 16 hours) − OD450 (time zero), Mean ([1]; 0.2% w/v) | Δ OD 590 nm OD590 (time = 16 hours) − OD590 (time zero), Mean ([1]; 0.2% w/v) | Δ OD 450 nm = OD450 (time = 16 hours) − OD450 (time zero), Mean ([1]; 0.3% w/v) | Δ OD 590 nm OD590 (time = 16 hours) − OD590 (time zero), Mean ([1]; 0.3% w/v) | No. of replicates showing growth (out of 4) ([1]; 0.5% w/v) | Δ OD 450 nm = OD450 (time = 16 hours) − OD450 (time zero), Mean ([1]; 0.5% w/v) | Δ OD 590 nm OD590 (time = 16 hours) − OD590 (time zero), Mean ([1]; 0.5% w/v) | Δ OD 450 nm = OD450 (time = 16 hours) − OD450 (time zero), Mean ([1]; […] w/v) | Δ OD 590 nm OD590 (time = 16 hours) − OD590 (time zero), Mean ([1]; […] w/v) | MBC (minimum biocidal concentration) [1] | MBC (minimum biocidal concentration of antimicrobial components) ([2]; component alone) | Antimicrobial alcohol MBC [2, 4] | SI (Synergy Index) [3] | MBC of the component acting alone (QA / QB; Qa or Qb where the other component is 0) [3] | other results
CC1=CC[C@@H](CO)[C@H](C)C1 (relative stereo) [floralol, Trans-4,6-dimethyl-3-Cyclohexene-1-methanol] | −1.43 | 0.35 | −1.20 | 0.55 | 0 | −0.06 | 0.09 | −0.29 | 0.23 | 0.4 % w/v | 0.3 % w/v | 0.3 % (w/v) | – | – | –
Oc1ccc(Cc2ccccc2)cc1 [4-benzylphenol, 4-benzyl phenol] | – | – | – | – | – | – | – | – | – | – | 0.05 % w/v | – | – | – | NMBS ([2]; 0.0125% 4-benzylphenol, E. coli): 7.75 log CFU/ml; NMBS ([2]; 0.05% 4-benzylphenol, E. coli): 0.00 log CFU/ml; Phenolic compound MBC [2, 4]: 0.5 % (w/v); NMBS ([2]; […] 4-benzylphenol, E. coli): 4.20 log CFU/ml
Oc1ccc2c(c1)CCCC2 [5,6,7,8-tetrahydronaphthalen-2-ol] | −1.55 | 0.36 | – | – | – | – | – | −1.60 | 0.31 | – | – | – | 1.00 | 0.8 weight % and 0.6 weight % | No. of replicates showing growth (out of 4) ([1]; 0.1% w/v): 4; Δ OD 450 nm = OD450 (time = 16 hours) − OD450 (time zero), Mean ([1]; 0.1% w/v): −1.56; Δ OD 590 nm OD590 (time = 16 hours) − OD590 (time zero), Mean ([1]; 0.1% w/v): 0.32; No. of replicates showing growth (out of 4) ([1]; 0.2% w/v): 4; No. of replicates showing growth (out of 4) ([1]; […] w/v): 4
C=C(C)[C@@H]1CC=C(CO)CC1 [(4S)-(4-(prop-1-en-2-yl)cyclohex-1-enyl)methanol] | – | – | – | – | – | – | – | – | – | 0.4 % w/v | – | – | 1.00 | 0.5 weight % and 0.3 weight % and 0.6 weight % | –
CC1CCC(CO)C(C)C1 (centres unmarked) [dihydrofloralol, 2,4-Dimethylcyclohexylmethanol] | −1.39 | 0.41 | −1.15 | 0.60 | 0 | −0.06 | 0.10 | −0.28 | 0.28 | 0.4 % w/v | 0.5 % w/v | 0.5 % (w/v) | – | – | No. of replicates showing growth (out of 4) ([1]; 0.3% w/v): 4

— US9320271B2, “Microbial composition” (Rohm and Haas Company, priority 2011, dated 2016)
